From paper PMC4777244, “Activation of transient receptor potential ankyrin 1 induces CGRP release from spinal cord synaptosomes” (Pharmacology Research & Perspectives, 2015)
Where “and” joins values, the source holds several entries; their conditions need not be identical. Equal values may be shown once. Entries after “also recorded” stand apart in the source; their conditions may differ. Where a name gives a salt, the structure may show the parent alone. Read-outs that look alike come from different tables or passages of the source.

Experiments:
TRPA1 = target: T1, TRPA1 (Rattus norvegicus, UniProt Q6RI86); experiment: cell-based
T1 construct: TRPA1 natively expressed on the central terminals of dorsal root ganglion neurons; from tissue; host or cells: lumbar spinal cord homogenate (synaptosomes) of adult male Sprague Dawley rats

spinal cord synaptosomes = experiment: KCl (depolarization)-evoked CGRP release from rat spinal cord homogenate, ELISA; assay type: cell-based; conditions: for CGRP release over basal release: n = 3
[1] = tested on: voltage‐gated calcium channels (VGCCs); assay type: cell-based, rat
[2] = tested on: voltage‐gated calcium channels (VGCCs); assay type: cell-based, rat; remark: listed apart in the source
TRPM3 = tested on: TRPM3; set-up: method as in Wagner et al. 2008; conditions: ref Wagner et al. 2008; read-out: EC50 for activation of TRPM3; cited from earlier work
[3] = tested on: recombinantly‐expressed TRPA1 channels; conditions: cited from earlier work
T‐type VGCCs = tested on: T‐type VGCCs; set-up: method as in Martin et al. 2000; conditions: ref Martin et al. 2000; cited from earlier work

T1 sequence (Q6RI86 whole entry): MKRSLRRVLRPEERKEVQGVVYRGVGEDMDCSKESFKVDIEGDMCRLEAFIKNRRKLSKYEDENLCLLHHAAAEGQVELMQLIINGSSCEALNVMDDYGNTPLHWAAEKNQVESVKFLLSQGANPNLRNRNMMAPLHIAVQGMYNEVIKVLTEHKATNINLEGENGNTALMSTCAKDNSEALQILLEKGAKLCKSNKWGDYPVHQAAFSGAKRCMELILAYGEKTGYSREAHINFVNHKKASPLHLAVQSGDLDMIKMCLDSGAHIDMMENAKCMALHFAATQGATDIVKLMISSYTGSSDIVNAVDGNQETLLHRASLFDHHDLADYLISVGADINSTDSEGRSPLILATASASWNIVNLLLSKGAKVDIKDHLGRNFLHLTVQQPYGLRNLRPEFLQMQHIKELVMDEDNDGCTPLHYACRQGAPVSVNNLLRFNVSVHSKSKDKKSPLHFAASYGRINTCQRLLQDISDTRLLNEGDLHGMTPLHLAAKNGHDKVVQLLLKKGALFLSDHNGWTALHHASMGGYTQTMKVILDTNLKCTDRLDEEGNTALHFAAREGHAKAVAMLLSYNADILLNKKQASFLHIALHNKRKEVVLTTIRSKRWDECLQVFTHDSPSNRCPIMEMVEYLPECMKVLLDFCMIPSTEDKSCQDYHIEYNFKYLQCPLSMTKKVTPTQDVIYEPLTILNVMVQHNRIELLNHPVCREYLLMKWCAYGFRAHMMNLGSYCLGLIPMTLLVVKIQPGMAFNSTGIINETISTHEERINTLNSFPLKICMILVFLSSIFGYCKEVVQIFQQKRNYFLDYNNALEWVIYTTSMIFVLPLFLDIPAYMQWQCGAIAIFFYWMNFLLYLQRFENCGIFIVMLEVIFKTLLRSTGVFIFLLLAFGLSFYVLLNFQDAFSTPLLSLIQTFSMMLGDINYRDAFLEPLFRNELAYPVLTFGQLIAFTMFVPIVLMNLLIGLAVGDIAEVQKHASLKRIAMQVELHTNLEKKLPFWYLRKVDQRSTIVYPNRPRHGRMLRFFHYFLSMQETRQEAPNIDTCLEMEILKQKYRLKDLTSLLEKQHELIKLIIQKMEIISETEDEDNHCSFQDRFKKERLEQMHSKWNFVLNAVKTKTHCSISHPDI

For `C=CCN=C=S` [AITC, allyl‐isothiocyanate], the “AITC-induced CGRP release” value (TRPA1) was 42 ± 11 % of 40 mmol/L KCl‐evoked release.
With `[Cl-].[K+]` [KCl] the “CGRP release evoked by 40 mmol/L KCl, absence of morphine” value (spinal cord synaptosomes; 40 mmol/L KCl, dorsal homogenate, morphine experiment, n = 4) was 77 ± 7 % over basal release, the “CGRP release over basal release” value (spinal cord synaptosomes; 40 mmol/L KCl, dorsal spinal cord homogenate, dorsal/ventral experiment) was 67 ± 9 % over basal release and the “CGRP release over basal release” value (spinal cord synaptosomes; 40 mmol/L KCl, ventral spinal cord homogenate) was 6 ± 4 % over basal release. The “CGRP release evoked by 60 mmol/L KCl, absence of morphine” value (spinal cord synaptosomes; 60 mmol/L KCl, dorsal homogenate, morphine experiment, n = 4) was 131 ± 17 % over basal release.
For `O=C/C=C/c1ccccc1` [cinnamaldehyde], the “cinnamaldehyde-evoked CGRP release” value (TRPA1; 100 μmol/L cinnamaldehyde, dorsal homogenate, absence of AP18) was 39 ± 8 % of 40 mmol/L KCl‐evoked release, the “CGRP release over basal release” value (TRPA1; 100 μmol/L cinnamaldehyde, dorsal spinal cord homogenate, n = 3) was 14 ± 5 % over basal release and the “CGRP release over basal release” value (TRPA1; 100 μmol/L cinnamaldehyde, ventral spinal cord homogenate, n = 3) was 0 ± 1 % over basal release. The “response to 1000 μmol/L cinnamaldehyde in Ca2+ free solutions as % of the response in Ca2+ containing solutions” value (TRPA1; 1000 μmol/L, Ca2+ free, 1 mmol/L EGTA, mean ± SEM, n = 3) was 18 ± 6% and the EC50 (TRPA1; EC50 of CGRP release, rat spinal cord homogenate, ELISA, mean ± SEM) was 54.8 ± 5.84 µM.
For ω‐conotoxin MVIIC, the “depolarization-induced CGRP release in the presence of inhibitor” value [1] was 73 ± 8 % of control 40 mmol/L KCl‐evoked release and the “effect on 100 μmol/L cinnamaldehyde-induced CGRP release” value [2] was “not significantly altered; also recorded: not significantly affected”.
In the case of `COC(=O)C1=C(C)NC(C)=C(C(=O)OC)C1c1ccccc1[N+](=O)[O-]` [nifedipine], the EC50 (TRPM3) is given as ~30 µM and the EC50 ([3]; ref Fajardo et al. 2008, read-out: EC50 for activation of recombinantly-expressed TRPA1 channels) is given as ~0.4 µM.
For `CCCCCC(=O)C=CC=O` [4‐ONE, 4‐oxo‐2‐nonenal], the EC50 (TRPA1; rat spinal cord homogenate, ELISA, mean ± SEM, read-out: EC50 of CGRP release) is listed as 63.8 µM and ~64 µM and the EC50 ([3]; ref Taylor‐Clark et al. 2008, read-out: previously reported EC50 value) is listed as ~2 µM.
In the case of `CC(=C\c1ccc(Cl)cc1)/C(C)=N/O` [AP18], the “AITC-induced CGRP release in the presence of AP18” value (TRPA1; 50 μmol/L AP18, 100 μmol/L AITC, dorsal homogenate) is reported as 8 ± 5 % of 40 mmol/L KCl‐evoked release, the “cinnamaldehyde-evoked CGRP release in the presence of AP18” value (TRPA1; 50 μmol/L AP18, 100 μmol/L cinnamaldehyde, dorsal homogenate) is reported as −1 ± 3 % of 40 mmol/L KCl‐evoked release and the “effect on CGRP release induced by 40 mmol/L and 60 mmol/L KCl” value (spinal cord synaptosomes; 50 μmol/L AP18) is reported as “no effect”.
In the case of `COCC(=O)O[C@]1(CCN(C)CCCc2nc3ccccc3[nH]2)CCc2cc(F)ccc2[C@@H]1C(C)C` [mibefradil dihydrochloride], the “greater affinity for T-type VGCCs than for L-type VGCC” value (T‐type VGCCs) is listed as 12–13 fold, the “decrease of high potassium-induced CGRP release” value ([1]; 40 mmol/L KCl, mibefradil dihydrochloride 10 μmol/L, cocktail) is listed as ~ 50% and the “effect on 40 mmol/L KCl-induced CGRP release” value ([1]; nifedipine 5 μmol/L, ω‐conotoxin MVIIC 200 nmol/L, mibefradil dihydrochloride 10 μmol/L, cocktail) is listed as “significantly decreased”. The “depolarization-induced CGRP release in the presence of inhibitor” value ([1]; ω‐conotoxin MVIIC 1 μmol/L, mibefradil dihydrochloride 10 μmol/L, cocktail (5 μmol/L nifedipine, 1 μmol/L ω‐conotoxin MVIIC, 10 μmol/L mibefradil)) was 48 ± 6 % of control 40 mmol/L KCl‐evoked release and the “effect on 100 μmol/L cinnamaldehyde-induced CGRP release” value ([2]; nifedipine 5 μmol/L, mibefradil dihydrochloride 10 μmol/L, ω‐conotoxin MVIIC 200 nmol/L, ANOVA) was “not significantly altered; also recorded: not significantly affected”.
Work on `CCCCCC(O)/C=C/C=O` (stereo not shown) [4‐HNE, 4‐hydroxynonenal] yielded an EC50 (TRPA1; read-out: EC50 of CGRP release) of 17.4 ± 0.68 µM.
